Legend:
[1] = Elution test (JP paddle method, pH 1.2); assay type: physicochemical; conditions: for Elution rate: pH 1.2, 900 ml, paddle 250 rpm, 100 mg equivalent/capsule
Protocol: A test was carried out using one gelatin capsule filled with the test compound (100 mg equivalent/capsule) and 900 ml of the disintegration test first solution (The Japanese Pharmacopoeia Fourteenth Edition, pH 1.2) as a test solution according to the elution test second method (The Japanese Pharmacopoeia Fourteenth Edition, paddle method) at 250 revolutions per minute. A sinker (The Japanese Pharmacopoeia Fourteenth Edition elution test method) was used for preventing flotation of the gelatin capsule. Five, 10, 15, 20, 30, 45, 60, 75, 90, 105 and 120 minutes after the start of the elution test, about 20 ml of the test solution was filtered through a filter having a pore size of 10 μm (manufactured by VARIAN, Full Flow Filters 10 μm) and directly fed into a flow cell (optical path length: 0.5 cm) in a circulating system. The absorbance was measured by a photodiode array spectrophotometer (HP 8452A). The absorbance of the compound (I) in each test solution at the time of collection of the test solution was compared with the absorbance of the following standard solution to measure the concentration of the compound (I) in the test solution.
The standard solution was prepared as follows. About 28 mg of the compound (I) was precisely weighed and added to a 500 ml volumetric flask. Five ml of ethanol (99.5%, special grade reagent) was added to the flask and the compound (I) was dissolved while providing ultrasonic stimulation as necessary. The disintegration test first solution was added to make the volume exactly 500 ml. The resulting solution was provided as the standard solution.
The elution test system is shown below.
Elution test device: DT-600 (manufactured by JASCO)
Ultraviolet visible spectrophotometer: HP 8452A Diodearray UV-Visible Spectrophotometer (manufactured by Hewlett Packard; now Agilent Technologies)
Cell positioner: HP 89075C Multicell Transport (manufactured by Hewlett Packard)
Delivery pump: HP 89092A Multichannel Pump (manufactured by Hewlett Packard)
Elution test software: Hewlett Packard Dissolution Testing Software, Revision 03.01 (manufactured by Hewlett Packard)
Analysis wavelength: 254 to 258 nm
Control wavelength: 322 to 326 nm
Optical path length of quartz cell: 0.5 cm

[2] = Absorbability test in dog; assay type: in vivo, dog (male beagle); conditions: for Cmax / AUC(0-t): fasted male beagle, tetragastrin-treated, oral gelatin capsule 100 mg/body, plasma; for AUC(0-t): read-out: AUC0-24 h
Protocol: Tetragastrin (6 μg/kg) was intramuscularly injected to the posterior region of thigh of a fasted male beagle (body weight: about 10 kg, n=4) to make the intragastric pH acidic 30 minutes before, immediately before and 30 minutes after administration of the test compound. The test compound was encapsulated in gelatin capsules at a dose of 100 mg/body and orally administered. About 3 ml of blood was collected from the median antebrachial vein using a heparin-treated glass syringe 0.5, 1, 2, 3, 4, 6, 8 and 24 hours after the administration. The collected blood was centrifuged to obtain plasma which was cryopreserved at −20° C. until measurement of the concentration of the test compound. One hundred μl of thawed plasma was mixed with 100 μl of 50% methanol, 800 μl of purified water, 100 μl of 0.1 N aqueous hydrochloric acid and 100 μl of an internal standard solution [a solution of the d7-compound (I) in 50% methanol, 50 ng/ml]. The eluate obtained by solid phase extraction using OASIS HLB was evaporated to dryness and then dissolved in 400 μl of 75% methanol. The solution was analyzed by LC/MS/MS.
A calibration curve was prepared by the same operation as above using 100 μl of dog control plasma without drug administration and 100 μl of a calibration curve standard solution [a solution of the compound (I) in 50% methanol, 0.1-1000 ng/ml].
The LC/MS/MS analysis conditions are shown below.
System: API4000 LC/MS/MS System (manufactured by
Applied Biosystems/MDS SCIEX)
Ion source: TurboIonSpray
Turbo heater gas: Air, 650° C., 70 psi
Nebulizer gas: Air, 70 psi
Orifice voltage: Compound (I) 106 V • d7-Compound (I) 106 V
Ion spray voltage: 5500 V
Collision energy: Compound (I) 35 V • d7-Compound (I) 35 V
Measurement mode: Positive/MRM
Monitor ion: Compound (I) m/z 583->167 • d7-Compound (I) m/z 590->167
System: Agilent 1100 Series (manufactured by Agilent Technologies)
Column: Inertsil ODS-3 5 μm, 2.1 mm I.D.×150 mm (manufactured by GL Sciences)
Mobile phase: Methanol/water/difluoroacetic acid (700/300/0.75)
(§1) Column temperature: 40° C.
The area under the concentration in plasma-time curve (AUC0-24h) and the maximum concentration in plasma (Cmax) as pharmacokinetic parameters indicative of drug absorbability were calculated from the results obtained according to the aforementioned method using the compound of Example 1 and the compound (I) as test compounds.

Thermal stability test = assay type: physicochemical
Protocol: The test compound was placed in a glass bottle and allowed to stand under the following conditions (1) and (2). After a certain period of time had elapsed, the residual rate of the active ingredient [compound (I)] in the test compound was measured by high performance liquid chromatography.
(1): Closed state, 60° C.;
(2): Non-closed state, 40° C., humidity 75%.
The measurement conditions in high performance liquid chromatography are as follows.
Column: L-column ODS [4.6 mm×250 mm, manufactured by Chemicals Evaluation and Research Institute, Japan]
Mobile layer: acetonitrile/22 mM potassium dihydrogenphosphate buffer/methanol=455/350/195 (V/V/V) (adjusted to pH 5.5 by phosphoric acid)
as §1
Detection wavelength: 220 nm
The residual rate (%) was calculated by the following formula.
The residual rate (%)=[1−(sum of peak area percentages of impurities and decomposed products)]×100

Question: Which Elution rate ([1]; 5 min) does the source give for `Br.Br.CC1=C(C(=O)OC(C)C)C(c2cccc([N+](=O)[O-])c2)C(C(=O)OC2CN(C(c3ccccc3)c3ccccc3)C2)=C(N)N1` (single isomer, unassigned) [Example 1, 2-Amino-1,4-dihydro-6-methyl-4-(3-nitrophenyl)-3,5-pyridinedicarboxylic acid 3-(1-diphenylmethylazetidin-3-yl)ester 5-isopropyl ester dihydrobromide] here?
Answer: Its Elution rate is 1.0%.

Question: And the Elution rate ([1]; 10 min)?
Answer: The Elution rate was 1.9%.

Question: And the Elution rate ([1]; 15 min)?
Answer: Its Elution rate is 3.3%.

Question: And the Elution rate ([1]; 20 min)?
Answer: The Elution rate was 5.0%.

Question: And the Elution rate ([1]; 30 min)?
Answer: The Elution rate was 9.9%.

Question: And the Elution rate ([1]; 45 min)?
Answer: The Elution rate was 23.5%.

Question: And the Elution rate ([1]; 60 min)?
Answer: Its Elution rate is 35.5%.

Question: What about the Elution rate ([1]; 75 min) of the same compound?
Answer: The Elution rate was 40.8%.

Question: And the Elution rate ([1]; 90 min)?
Answer: The Elution rate was 45.1%.

Question: What about the Elution rate ([1]; 105 min) of the same compound?
Answer: The Elution rate was 49.6%.

Question: What about the Elution rate ([1]; 120 min) of the same compound?
Answer: The Elution rate was 52.6%.

Question: What about the “elution properties (in words)” value ([1]; pH 1.2, compared with free compound (I)) of the same compound?
Answer: Its value is “superior to those of the free compound (I)”.

Question: What about the Cmax [2] of the same compound?
Answer: Its Cmax is 248 ng/mL.

Question: And the AUC(0-t) [2]?
Answer: The AUC(0-t) was 2930 ng·h/mL.

Question: And the “bioavailability and concentration in blood (AUC0-24h and Cmax), in words” value ([2]; oral, compared with free compound (I))?
Answer: The value was “superior to those of the free compound (I)”.

Question: What about the “Residual rate of Compound (I)” value (Thermal stability test; Condition (1): closed state, 60° C., time 0 month) of the same compound?
Answer: The value was 99.9%.

Question: And the “Residual rate of Compound (I)” value (Thermal stability test; Condition (1): closed state, 60° C., time 1 month)?
Answer: Its value is 99.7%.

Question: And the “Residual rate of Compound (I)” value (Thermal stability test; Condition (1): closed state, 60° C., time 3 months)?
Answer: Its value is 99.7%.

Question: What about the “Residual rate of Compound (I)” value (Thermal stability test; Condition (1): closed state, 60° C., time 6 months) of the same compound?
Answer: Its value is 99.6%.

Question: And the “stability (in words)” value (Thermal stability test; Condition (2): non-closed state, 40° C., humidity 75%)?
Answer: The value was “excellent stability”.

Question: And the “Residual rate of Compound (I)” value (Thermal stability test; Condition (2): non-closed state, 40° C., humidity 75%, time 0 month)?
Answer: The value was 99.9%.

Question: What about the “Residual rate of Compound (I)” value (Thermal stability test; Condition (2): non-closed state, 40° C., humidity 75%, time 1 month) of the same compound?
Answer: The value was 99.5%.

Question: And the “Residual rate of Compound (I)” value (Thermal stability test; Condition (2): non-closed state, 40° C., humidity 75%, time 3 months)?
Answer: The value was 99.1%.

Question: What about the “Residual rate of Compound (I)” value (Thermal stability test; Condition (2): non-closed state, 40° C., humidity 75%, time 6 months) of the same compound?
Answer: The value was 98.9%.

Question: With `CC1=C(C(=O)OC(C)C)C(c2cccc([N+](=O)[O-])c2)C(C(=O)OC2CN(C(c3ccccc3)c3ccccc3)C2)=C(N)N1` (stereo not shown) [Compound (I), 2-Amino-1,4-dihydro-6-methyl-4-(3-nitrophenyl)-3,5-pyridinedicarboxylic acid 3-(1-diphenylmethylazetidin-3-yl) ester 5-isopropyl ester, reference compound] as the compound, how does the Elution rate ([1]; 5 min) read?
Answer: The Elution rate was 0.5%.

Question: What about the Elution rate ([1]; 10 min) of the same compound?
Answer: Its Elution rate is 0.7%.

Question: And the Elution rate ([1]; 15 min)?
Answer: The Elution rate was 1.0%.

Question: What about the Elution rate ([1]; 20 min) of the same compound?
Answer: The Elution rate was 1.3%.

Question: What about the Elution rate ([1]; 30 min) of the same compound?
Answer: Its Elution rate is 1.8%.

Question: And the Elution rate ([1]; 45 min)?
Answer: The Elution rate was 2.5%.

Question: And the Elution rate ([1]; 60 min)?
Answer: Its Elution rate is 3.1%.

Question: And the Elution rate ([1]; 75 min)?
Answer: Its Elution rate is 3.6%.

Question: And the Elution rate ([1]; 90 min)?
Answer: The Elution rate was 4.1%.

Question: What about the Elution rate ([1]; 105 min) of the same compound?
Answer: The Elution rate was 4.5%.

Question: What about the Elution rate ([1]; 120 min) of the same compound?
Answer: The Elution rate was 5.0%.

Question: What about the Cmax [2] of the same compound?
Answer: The Cmax was 178 ng/mL.

Question: And the AUC(0-t) [2]?
Answer: The AUC(0-t) was 1810 ng·h/mL.

Source: US20090170827A1, “Acid Addition Salt of Dihydropyridine Derivative” (Daiichi Sankyo Company , Limited, priority 2005, published 2009)
